Laboratory results as given in PMC9572513, “Novel Unsymmetric 3,5-Bis(benzylidene)-4-piperidones That Display Tumor-Selective Toxicity” (Molecules, 2022).
Structures can show the parent of a compound that is named as a salt. Where two headings read alike, the source gives them in different places.

Assays:
[1] = MTT cytotoxicity against human periodontal ligament fibroblast (HPLF); format: cell-based; conditions: human, human periodontal ligament fibroblasts (HPLF), non-malignant oral cells
Experimental: (§1) The method for evaluating 2a–f and 3a–e against human oral squamous cell carcinoma (OSCC) cell lines (Ca9-22, HSC-2, HSC-3, HSC-4) and human non-malignant oral cells [human gingival fibroblast (HGF), human periodontal ligament fibroblast (HPLF), and human pulp cell (HPC)] have been reported previously, except the length of time of this bioassay was extended from 24 h to 48 h. In brief, different quantities of the compounds were incubated with the cells in Dulbecco’s modified eagle medium (DMEM), which was supplemented with 10% FBS and antibiotics. The cell viability was determined by the 3-(4,5-dimethylthiazol-2-yl)-2,5-diphenyl-2H-tetrazolium bromide (MTT) method as summarized previously (Figure 4).

[2] = MTT cytotoxicity against human gingival fibroblast (HGF); format: cell-based; conditions: human, human gingival fibroblasts (HGF), non-malignant oral cells
Experimental: as §1

[3] = test system: Ca9-22 squamous cell carcinoma cells; experiment: MTT cytotoxicity against Ca9-22 squamous cell carcinoma; format: cell-based, human; conditions: for CC50: Homo sapiens, read-out: Ca9-22 CC50; for Ca9-22 SI: average CC50 HGF/HPLF/HPC divided by CC50 Ca9-22
Experimental: as §1

[4] = test system: HCT116 and HT29 colon cancer cells; experiment: Average over HCT116 and HT29 colon cancer cells; format: cell-based, human; conditions: for IC50: Homo sapiens, average of HCT116 and HT29, unit printed only for the single cell-line columns; for Average SI: average of SI for HCT116 and HT29; for PSE (potency-selectivity expression): reciprocal of average IC50 x average SI x 100, colon cells
Experimental: (§2) The culture medium was supplemented with 10% heat-inactivated fetal bovine serum (FBS) and 1% penicillin–streptomycin antibiotics. The time of the bioassays was 48 h. The determinations were undertaken in triplicate on three different occasions.

HT29 colon cancer cells = experiment: Cytotoxicity against HT29 colon cancer cells; format: cell-based, human; conditions: for IC50: 48 h; for HT29 SI (selectivity index): IC50 CRL1790 / IC50 HT29
Experimental: as §2

[5] = test system: HSC-2 squamous cell carcinoma cells; experiment: MTT cytotoxicity against HSC-2 squamous cell carcinoma; format: cell-based, human; conditions: for CC50: Homo sapiens, read-out: HSC-2 CC50; for HSC-2 SI: average CC50 HGF/HPLF/HPC divided by CC50 HSC-2
Experimental: as §1

[6] = test system: HCT116 colon cancer cells; experiment: Cytotoxicity against HCT116 colon cancer cells; format: cell-based, human; conditions: for IC50: Homo sapiens, HCT-116, 48 h, 48 h; for HCT116 SI (selectivity index): IC50 CRL1790 / IC50 HCT116
Experimental: as §2

[7] = test system: CRL1790 non-malignant colon cells; experiment: Cytotoxicity against CRL1790 non-malignant colon cells; format: cell-based; conditions: Homo sapiens, 48 h
Experimental: as §2

[8] = test system: HSC-3 squamous cell carcinoma cells; experiment: MTT cytotoxicity against HSC-3 squamous cell carcinoma; format: cell-based, human; conditions: for CC50: Homo sapiens, read-out: HSC-3 CC50; for HSC-3 SI: average CC50 HGF/HPLF/HPC divided by CC50 HSC-3
Experimental: as §1

[9] = test system: HSC-4 squamous cell carcinoma cells; experiment: MTT cytotoxicity against HSC-4 squamous cell carcinoma; format: cell-based, human; conditions: for CC50: Homo sapiens, read-out: HSC-4 CC50; for HSC-4 SI: average CC50 HGF/HPLF/HPC divided by CC50 HSC-4
Experimental: as §1

[10] = Average over HGF, HPLF and HPC non-malignant oral cells; format: cell-based, human; conditions: human, HPLF and HPC non-malignant oral cells (average), average of HGF
Experimental: as §1

[11] = MTT cytotoxicity against human pulp cell (HPC); format: cell-based; conditions: human, human pulp cells (HPC), non-malignant oral cells
Experimental: as §1

[12] = test system: Ca9-22, HSC-2, HSC-3, and HSC-4 squamous cell carcinoma cell lines; experiment: Average over Ca9-22, HSC-2, HSC-3 and HSC-4 OSCC cell lines; format: cell-based, human; conditions: for CC50: read-out: Average CC50; for Average SI: average of SI for four OSCC cell lines
Experimental: as §1

[13] = Homo sapiens, average of four OSCC cell lines

Structure (SMILES)	IC50 [4]	CC50 at 48 h [1]	CC50 at 48 h [2]	CC50 ([3]; Ca9-22, 48 h, MTT)	Ca9-22 SI [3]	Average SI [4]	PSE (potency-selectivity expression) [4]	IC50 (HT29 colon cancer cells; Homo sapiens, HT-29, 48 h)	HT29 SI (selectivity index) (HT29 colon cancer cells)	CC50 ([5]; HSC-2, 48 h, MTT)	HSC-2 SI [5]	IC50 [7]	CC50 ([8]; HSC-3, 48 h, MTT)	HSC-3 SI [8]	CC50 ([9]; HSC-4, 48 h, MTT)	HSC-4 SI [9]	CC50 at 48 h [10]	CC50 at 48 h [11]	CC50 [12, 13]	Average SI [12]	also measured
Cc1ccc(/C=C2\CNC/C(=C\c3ccc(O)c(CN4CCN(C)CC4)c3)C2=O)cc1 [Compound 3d]	2.31 µM	10.1 µM	14.6 µM	1.3 µM	7.85	18.8	814	0.71 ± 0.29 µM	31.8	2.2 µM	4.64	22.6 ± 0.59 µM	1.91 µM	5.34	2.29 µM	4.45	10.2 µM	6 µM	1.93 µM	5.57	IC50 [6]: 3.91 ± 1.69 µM; HCT116 SI (selectivity index) [6]: 5.78
COc1cccc2c1C(=O)c1c(O)c3c(c(O)c1C2=O)C[C@@](O)(C(=O)CO)C[C@@H]3O[C@H]1C[C@H](N)[C@H](O)[C@H](C)O1 [DXR, doxorubicin, reference compound]	–	> 10 µM	> 10 µM	0.33 µM	>30.3	–	–	–	–	0.2 µM	>50.0	–	0.24 µM	>41.7	0.14 µM	>71.4	> 10 µM	> 10 µM	0.23 µM	>48.4	–
N[C@@H](Cc1ccc(N(CCCl)CCCl)cc1)C(=O)O [MPN, melphalan, reference compound]	–	> 200 µM	> 200 µM	–	>4.68	–	–	–	–	–	>11.8	–	–	>9.62	–	>19.2	> 200 µM	> 200 µM	–	>11.3	CC50 ([3]; Ca9-22, 48 h): 42.7 µM; CC50 ([5]; HSC-2, 48 h): 17 µM; CC50 ([8]; HSC-3, 48 h): 20.8 µM; CC50 ([9]; HSC-4, 48 h): 10.4 µM; CC50 ([12]; Homo sapiens): 22.7 µM
O=c1[nH]cc(F)c(=O)[nH]1 [Compound 5-FU, 5-fluorouracil, reference compound]	8.97 µM	> 1000 µM	> 1000 µM	141 µM	>7.09	3.10	34.6	14.4 ± 0.65 µM	1.22	359 µM	>2.79	17.6 ± 0.82 µM	450 µM	>2.22	7.8 µM	>128	> 1000 µM	> 1000 µM	> 240 µM	>35.0	IC50 [6]: 3.54 ± 0.72 µM; HCT116 SI (selectivity index) [6]: 4.97
COc1ccc(/C=C2\CNC/C(=C\c3ccc(O)c(CN4CCN(C)CC4)c3)C2=O)cc1 [Compound 3c]	0.9 µM	4.9 µM	8.8 µM	0.66 µM	8.33	15.1	1678	0.76 ± 0.26 µM	17.4	1.1 µM	5.00	13.2 ± 0.36 µM	1.05 µM	5.24	1.18 µM	4.66	5.5 µM	2.8 µM	1 µM	5.81	IC50 [6]: 1.04 ± 0.48 µM; HCT116 SI (selectivity index) [6]: 12.7

Further lines, with some results ahead:

IC50 [4]	Structure (SMILES)	CC50 at 48 h [1]	CC50 at 48 h [2]	CC50 ([3]; Ca9-22, 48 h, MTT)	Ca9-22 SI [3]	Average SI [4]	PSE (potency-selectivity expression) [4]	IC50 (HT29 colon cancer cells; Homo sapiens, HT-29, 48 h)	HT29 SI (selectivity index) (HT29 colon cancer cells)	CC50 ([5]; HSC-2, 48 h, MTT)	HSC-2 SI [5]	IC50 [7]	CC50 ([8]; HSC-3, 48 h, MTT)	HSC-3 SI [8]	CC50 ([9]; HSC-4, 48 h, MTT)	HSC-4 SI [9]	CC50 at 48 h [10]	CC50 at 48 h [11]	CC50 [12, 13]	Average SI [12]	also measured
3.56 µM	COc1ccc(/C=C2\CNC/C(=C\c3ccc(O)c(CN4CCOCC4)c3)C2=O)cc1OC [Compound 2e, 3-[3-(4-Morpholinomethyl)-4-hydroxybenzylidene]-5-(3,4-dimethoxybenzylidene)-4-piperidone dihydrochloride]	> 200 µM	> 200 µM	41.8 µM	>4.79	7.72	217	3.75 ± 0.78 µM	7.31	88.5 µM	>2.26	27.4 ± 0.42 µM	73.2 µM	>2.73	–	–	> 200 µM	> 200 µM	69.3 µM	3.12	IC50 [6]: 3.37 ± 0.68 µM; HCT116 SI (selectivity index) [6]: 8.13
0.5 µM	COc1ccc(/C=C2\CNC/C(=C\c3ccc(O)c(CN4CCCCC4)c3)C2=O)cc1OC [Compound 2d, 3-[3-(1-Piperidinylmethyl)-4-hydroxybenzylidene]-5-(3,4-dimethoxybenzylidene)-4-piperidone dihydrochloride]	2.7 µM	7 µM	0.42 µM	<8.98	47.9	9580	< 1 µM	43.5	0.61 µM	<6.18	23.5 ± 0.26 µM	0.39 µM	<9.67	0.75 µM	–	< 3.77 µM	< 1.6 µM	< 1 µM	7.47	IC50 (HT29 colon cancer cells): 0.54 ± 0.17 µM; CC50 ([12]; average of four OSCC cell lines): 0.54 µM; PSE (potency-selectivity expression) ([12]; reciprocal of average CC50 (OSCC) x average SI x 100): > 1000
